Test results reported in patent publication US11932654B2, “Nimbolide analogs as anti-cancer agents and preparation thereof” (priority 2018, dated 2024).

Columns and labels:
[1] = test system: PC3 prostate cancer cell line; experiment: In vitro anticancer activity, SRB assay, PC3; assay type: cell-based; settings: 48 h, NA = Not Active
Protocol: Cell culture: Human lung adenocarcinoma cell line (A549 cell line), pancreatic cancer cell line (Panc-1, Pan-02), prostate cancer cell line (DU145, PC3), Brest cancer cell line (MCF-7) was grown in DIEM (Dulbecco's modifications of eagle's medium with L-glutamine & 4.5 g/L glucose) supplemented with fetal bovine serum in a humidified atmosphere of a 5% CO2 at 37° C.
(§1) In vitro anticancer activity: Cells were harvested from exponential phase cultures by trypsinization, counted and plated in 96-well plate. Optimal seeding densities for different cell lines in each plate were 5000 cells per well. After 24 h cells were treated with \ the newly synthesized compound at a dose range of 0.1-100 μm final concentration. Thereafter, cells were allowed to grow for 48 h before determination of cell survival by the SRB assay. Then the cells were fixed with 10% cold trichloroacetic acid for 1 h at 4° C. After two washes with deionized water, fixed cells were stained with 50 μL of SRB solution (1% in acetic acid) for 30 min and subsequently washed twice with 1% acetic acid to remove unbound stain. The plates were left to dry at room temperature and bound stain was solubilized with 100 μL of 10 mM buffered Tris base for reading the […] at 540 nm.

NIH3T3 cells = experiment: In vitro anticancer activity, SRB assay, NIH3T3; assay type: cell-based
Protocol: as §1

[2] = Biochemical analysis of serum of tumor xenograft mice; assay type: in vivo, nude mice; settings: for Albumin / Alkaline phosphatase / Creatinine / Glucose / SGOT / SGPT / Total protein / Urea: xenograft mice, mean ± SE
Protocol: (§2) Establishment of Pancreatic cancer xenograft model: To establish tumor in mice, Pan-02 cells (7×10^6) were suspended in 1:1 RPMI medium mixed with matrigel and subcutaneously implanted on right flank of the each mice. The injection sites were examined daily for the appearance of tumors. On 10th day these animals were randomized and divided into 3 groups (6 mice in each group). Group I served as control group received 20% ethanol three times in a week. Test group animals in Group II and III received intratumoral injection of IM-1372-Kn-13 at 10 mg and 25 mg/kg body weight respectively three times in a week. All groups received 5 repeated doses in 12 days. Mice were weighed and tumor volumes were measured 3 times a week by Vernier caliper. Tumor volume in individual mice was calculated by the following formula. 0.5×L (W)^2, Where L is length, W is width of the tumor. The control group animals were euthanized when tumor volume is reached heavier to animal. One-week after completion of treatment period, the animals were sacrificed, and tumors were excised, fixed, and embedded in paraffin. At the end of treatment, blood samples were collected to perform clinical biochemistry.
(§3) Biochemical analysis: In acute toxicity experiment, blood samples were collected from all the animals 1 week after the last dose and mice were sacrificed by cervical decapitation. The obtained serum was analyzed in clinical chemistry for the assessment of liver function tests (LFT), activity of serum alkaline phosphatase (ALP), alanine aminotransferase (ALT), aspartate aminotransferase (AST), kidney function tests (RFT) (serum urea and creatinine). The same tests were performed for serum samples collected from three groups of tumor xenograft mice used for determining in vivo activity of test compound against pancreatic cancer. The measurement of these biochemical parameters was done in Clinical Biochemical analyzer (Tulip coralab 3000™).

caspase-3 = experiment: Caspase assay activity, caspase-3, Panc-1 cells; assay type: cell-based; settings: fluorimetric assay, increasing concentrations
Protocol: (§4) Caspase assay activity: Caspase-3, caspase-8 and caspase-9 protease activities were determined using a commercial fluorescence assay kit according to the manufacturer's instructions, Briefly, pancreatic cancer cells were treated with different concentrations of IM-1372-Kn-13 for 24 h were re-suspended in 50 μL of chilled cell lysis buffer; cells were then incubated on ice for 10 min and centrifuged for 1 min in a micro-centrifuge (10,000 g). Then supernatants were transferred (cytosolic extract) to a fresh tube and protein concentration was assayed. Next, diluted 100 μg protein was added to 50 μL cell lysis buffer for each assay. Subsequently, 50 μL of 2× reaction buffer and 5 μL of the 4 mM Ac-DEVD AMC (caspase-3)/Ac-VETD-AMC (caspase-8)/[…] were added and incubated at 37° C. for 2 h (samples read at […] in a microtiter plate reader).

[3] = Biochemical analysis in acute toxicity studies; assay type: in vivo, mice
Protocol: as §3

caspase-8 = experiment: Caspase assay activity, caspase-8, Panc-1 cells; assay type: cell-based; settings: fluorimetric assay, increasing concentrations
Protocol: as §4

caspase-9 = experiment: Caspase assay activity, caspase-9, Panc-1 cells; assay type: cell-based; settings: fluorimetric assay, increasing concentrations
Protocol: as §4

[4] = test system: Pan-02 cells xenograft tumors; experiment: Histopathological examination of tumors and organs of xenograft mice; assay type: in vivo, nude mice
Protocol: as §2

[5] = single IP dose 5 mg/kg body weight
[6] = single IP dose 10 mg/kg body weight
[7] = single IP dose 25 mg/kg body weight
[8] = single IP dose 50 mg/kg body weight

In the case of `COC(=O)C[C@H]1[C@]2(C)C3=C(C)[C@H](C4=CC5OC4C(C(=O)OC)=C5C(=O)OC)C[C@@H]3O[C@@H]2[C@@H]2OC(=O)[C@]3(C)C=CC(=O)[C@@]1(C)C23` (stereo partly shown) [A4], the IC50 [1] is reported as 1.4 µM, the cytotoxic activity (NIH3T3 cells) is reported as “no activity was observed” and the “serum total protein and albumin levels” value ([2]; group II and III compared to control group I) is reported as “significantly increased”. For the same molecule, the “serum ALT, AST and ALP enzyme activities” value ([2]; treated xenograft groups vs elevated control group I) was “returned to normal”, the “elevated levels of serum urea and creatinine” value ([2]; tumor-bearing mice, compared to group I) was “significantly fetched down” and the Albumin ([2]; 10 mg/kg) was 3.16 ± 0.2 g/dL. The Alkaline phosphatase ([2]; 10 mg/kg) was 685.26 ± 28.8 U/L, the Creatinine ([2]; 10 mg/kg) was 1.56 ± 0.4 mg/dL and the Glucose ([2]; 10 mg/kg) was 77.60 ± 3.0 mg/dL. The SGOT ([2]; 10 mg/kg) was 56.12 ± 5.8 U/L, the SGPT ([2]; 10 mg/kg) was 47.05 ± 5.8 U/L and the Total protein ([2]; 10 mg/kg) was 6.24 ± 0.5 g/dL. The Urea ([2]; 10 mg/kg) was 46.81 ± 5.8 mg/dL, the Albumin ([2]; 25 mg/kg) was 3.61 ± 0.1 g/dL and the Alkaline phosphatase ([2]; 25 mg/kg) was 545.63 ± 24.9 U/L. The Creatinine ([2]; 25 mg/kg) was 0.80 ± 0.1 mg/dL, the Glucose ([2]; 25 mg/kg) was 108.42 ± 4.7 mg/dL and the SGOT ([2]; 25 mg/kg) was 32.20 ± 2.4 U/L. It also gave an SGPT ([2]; 25 mg/kg) of 24.49 ± 4.0 U/L, a Total protein ([2]; 25 mg/kg) of 8.05 ± 0.3 g/dL and a Urea ([2]; 25 mg/kg) of 41.23 ± 3.7 mg/dL. The “activity of caspase-3” value (caspase-3) was “increased significantly in a dose-dependent manner”, the ALT [3, 5] was 48 U/L and the AST [3, 5] was 63 U/L. It also gave a BUN [3, 5] of 18 mg/dL, a Cholesterol [3, 5] of 175 mg/dL and a Creatinine [3, 5] of 0.4 mg/dL. The Glucose [3, 5] was 101 mg/dL, the ALT [3, 6] was 66 U/L and the AST [3, 6] was 66 U/L. The BUN [3, 6] was 21 mg/dL, the Cholesterol [3, 6] was 175 mg/dL and the Creatinine [3, 6] was 0.4 mg/dL. It also gave a Glucose [3, 6] of 100 mg/dL, an ALT [3, 7] of 67 U/L and an AST [3, 7] of 74.5 U/L. The BUN [3, 7] was 24.5 mg/dL, the Cholesterol [3, 7] was 163.5 mg/dL and the Creatinine [3, 7] was 0.35 mg/dL. The Glucose [3, 7] was 96 mg/dL, the ALT [3, 8] was 95 U/L and the AST [3, 8] was 128 U/L. It also gave a BUN [3, 8] of 29 mg/dL, a Cholesterol [3, 8] of 178 mg/dL and a Creatinine [3, 8] of 0.9 mg/dL. For the same molecule, the Glucose [3, 8] was 102 mg/dL, the “activity of caspase-8” value (caspase-8) was “increased significantly in a dose-dependent manner” and the “activity of caspase-9” value (caspase-9) was “increased significantly in a dose-dependent manner”. The “animals showing liver metastasis” value ([4]; printed 'group I' (control group: 50%)) was 10 % of animals, the “metastatic invasion in liver, kidney and spleen” value ([4]; printed 'group II') was “no metastatic invasion was found” and the “liver metastasis in treated animals” value ([4]; treated xenograft animals vs control group) was “no liver metastasis”. The “effect on the other tissues of xenograft mice” value ([4]; xenograft mice, intratumoral) was “did not show any effect”.
